SMILES strings stand for the structures. Positions count from the first letter of the chain named. The source made the active and inactive calls. No cut-off for these calls is given here.

Series [1] relates to Lysosomal acid glucosylceramidase (Homo sapiens), P04062 [UNDEFINED MUTATION]. The series is described as follows: Modulation of GCase N370S/RecNcil mutant in Gaucher patient-derived human fibroblasts assessed as fold increase in GCase rescue at 10 uM incubated for 4 days by fluorescence based lysed cell assay relative to control. To be noted: Fibroblast, filed as modulator, time 4.0 day.

A short description of series [2]: Stability of compound at pH 5.8 assessed as compound remaining measured after 1 hr by 1H NMR spectroscopy. It is filed as physicochemical. Conditions: buffer, read-out: Stability.
Series [3] can be described thus: Stability of compound at pH 7 assessed as compound remaining measured after 4 days by 1H NMR spectroscopy. Conditions: buffer, time 4 day, read-out: Stability. The series is classed as physicochemical.
Series [4] can be described thus: Stability of compound at pH 5.8 assessed as compound hydrolysis measured after 6 days by 1H NMR spectroscopy. The series is classed as physicochemical. Conditions: buffer, pH 5.8, 144 h; time 6 day.
Series [5] addresses T1, Lysosomal acid glucosylceramidase (Homo sapiens) (UniProt P04062).
T1 sequence (whole entry): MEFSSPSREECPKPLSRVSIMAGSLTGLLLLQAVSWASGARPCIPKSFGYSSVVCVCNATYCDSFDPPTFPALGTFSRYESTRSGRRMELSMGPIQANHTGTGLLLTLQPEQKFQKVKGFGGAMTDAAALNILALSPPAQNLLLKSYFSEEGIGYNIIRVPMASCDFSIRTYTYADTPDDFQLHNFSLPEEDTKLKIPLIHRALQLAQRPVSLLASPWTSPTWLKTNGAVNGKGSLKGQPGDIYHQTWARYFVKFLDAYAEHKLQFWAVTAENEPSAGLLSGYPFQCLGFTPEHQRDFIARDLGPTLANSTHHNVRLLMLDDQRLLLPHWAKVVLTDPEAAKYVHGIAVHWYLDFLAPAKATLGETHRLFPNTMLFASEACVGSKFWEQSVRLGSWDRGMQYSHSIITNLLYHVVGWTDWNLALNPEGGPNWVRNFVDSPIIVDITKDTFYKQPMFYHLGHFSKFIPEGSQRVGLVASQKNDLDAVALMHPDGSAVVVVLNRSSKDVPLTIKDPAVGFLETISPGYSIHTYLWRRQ
The series is described as follows: Inhibition of lysosomal GCase in human leucocytes using 4-methylumbelliferyl-beta-D-glucopyranoside as substrate at 1 mM incubated for 1 hr by fluorescence based assay relative to control. The series is classed as cell-based. To be noted: Leucocyte.

The target of series [6] is T2, Lysosomal acid glucosylceramidase (Homo sapiens, UniProt P04062).
T2 sequence (P04062 whole entry): T1 sequence (whole entry)
Briefly: Non-competitive inhibition of lysosomal GCase in human leucocytes using 4-methylumbelliferyl-beta-D-glucopyranoside as substrate incubated for 1 hr by fluorescence based assay. The series is classed as cell-based, Leucocyte.

Series [7] deals with Lysosomal acid glucosylceramidase (Homo sapiens), P04062 [UNDEFINED MUTATION]. The series is described as follows: Modulation of GCase N370S/RecNcil mutant in Gaucher patient-derived human fibroblasts assessed as fold increase in GCase rescue at 100 uM incubated for 4 days by fluorescence based lysed cell assay relative to control. To be noted: Fibroblast, filed as modulator, time 4.0 day.

Series [8] concerns T3, Lysosomal acid glucosylceramidase (Homo sapiens), P04062 [L483P].
T3 sequence (whole entry): T1 sequence (whole entry) with L483P
Briefly: Modulation of GCase L444P/L444P mutant in Gaucher patient-derived human fibroblasts assessed as GCase rescue at 10 to 100 uM incubated for 4 days by fluorescence based lysed cell assay. Conditions: Fibroblast, dose 10-100 µM, time 4.0 day.

Series [9] deals with Lysosomal acid glucosylceramidase (Homo sapiens), P04062 [UNDEFINED MUTATION]. Briefly: Modulation of GCase N370S/RecNcil mutant in Gaucher patient-derived human fibroblasts assessed as fold increase in GCase rescue at 20 uM incubated for 4 days by fluorescence based lysed cell assay relative to control. Conditions: Fibroblast, filed as modulator, time 4.0 day.
Series [10] concerns the target T1, Lysosomal acid glucosylceramidase (Homo sapiens). Briefly: Non-competitive inhibition of lysosomal GCase in human leucocytes using 4-methylumbelliferyl-beta-D-glucopyranoside as substrate assessed as reduction in apparent Vmax incubated for 1 hr by fluorescence based assay. It is filed as cell-based. To be noted: Leucocyte.
Series [11] shares this target. The series is described as follows: Non-competitive inhibition of lysosomal GCase in human leucocytes using 4-methylumbelliferyl-beta-D-glucopyranoside as substrate assessed as unchanged Km incubated for 1 hr by fluorescence based assay. The series is classed as cell-based. To be noted: Leucocyte.
Series [12] shares this target. The series is described as follows: Inhibition of lysosomal GCase in human leucocytes using 4-methylumbelliferyl-beta-D-glucopyranoside as substrate incubated for 1 hr by Lineweaver-burk plot analysis. It is filed as cell-based. Conditions: Leucocyte.
The target is the same in series [13]. Briefly: Inhibition of lysosomal GCase in human leucocytes using 4-methylumbelliferyl-beta-D-glucopyranoside as substrate at 1 mM measured immediately by fluorescence based assay relative to control. The series is classed as cell-based. Conditions: Leucocyte.
The target is the same in series [14]. The series is described as follows: Inhibition of lysosomal GCase in human leucocytes using 4-methylumbelliferyl-beta-D-glucopyranoside as substrate at 1 mM measured after 12 hrs by fluorescence based assay relative to control. The series is classed as cell-based. Conditions: Leucocyte.
For series [15] the target is unchanged. Briefly: Inhibition of lysosomal GCase in human leucocytes using 4-methylumbelliferyl-beta-D-glucopyranoside as substrate at 1 mM measured 24 hrs by fluorescence based assay relative to control. Conditions: Leucocyte. It is filed as cell-based.
The target is the same in series [16]. Briefly: Inhibition of lysosomal GCase in human leucocytes using 4-methylumbelliferyl-beta-D-glucopyranoside as substrate at 1 mM measured 36 hrs by fluorescence based assay relative to control. The series is classed as cell-based. Conditions: Leucocyte.
Series [17] relates to Lysosomal acid glucosylceramidase (Homo sapiens), P04062 [UNDEFINED MUTATION]. The series is described as follows: Modulation of GCase N370S/RecNcil mutant in Gaucher patient-derived human fibroblasts using 4-methylumbelliferyl beta-D-glucopyranoside as substrate assessed as fold increase in GCase rescue at 30 uM preincubated for 4 days followed by compound washout and substrate addition measured after 2 hrs by fluorescence based intact cell enzyme assay relative to control. To be noted: Fibroblast, filed as modulator, time 4.0 day.

Series [18] deals with T3, Lysosomal acid glucosylceramidase (Homo sapiens), P04062 [L483P]. Briefly: Modulation of GCase L444P/L444P mutant in Gaucher patient-derived human fibroblasts assessed as fold increase in GCase rescue at 100 uM incubated for 4 days by fluorescence based lysed cell assay relative to control. To be noted: Fibroblast, filed as modulator, time 4.0 day.
For series [19] the test system is unchanged. Briefly: Modulation of GCase L444P/L444P mutant in Gaucher patient-derived human fibroblasts using 4-methylumbelliferyl beta-D-glucopyranoside as substrate assessed as fold increase in GCase rescue at 30 uM preincubated for 4 days followed by compound washout and substrate addition measured after 2 hrs by fluorescence based intact cell enzyme assay relative to control. To be noted: Fibroblast, filed as modulator, time 4.0 day.

For series [20] the test system is unchanged. Briefly: Modulation of GCase L444P/L444P mutant in Gaucher patient-derived human fibroblasts assessed as fold increase in GCase rescue at 50 uM incubated for 4 days by fluorescence based lysed cell assay relative to control. To be noted: Fibroblast, filed as modulator, time 4.0 day.
Series [21] relates to Lysosomal acid glucosylceramidase (Homo sapiens), P04062 [UNDEFINED MUTATION]. The series is described as follows: Modulation of GCase N370S/RecNcil mutant in Gaucher patient-derived human fibroblasts assessed as fold increase in GCase rescue at 50 uM incubated for 4 days by fluorescence based lysed cell assay relative to control. Conditions: Fibroblast, filed as modulator, time 4.0 day.

In series [22] the test system is T3, Lysosomal acid glucosylceramidase (Homo sapiens), P04062 [L483P]. The series is described as follows: Modulation of GCase L444P/L444P mutant in Gaucher patient-derived human fibroblasts assessed as GCase rescue at 10 uM incubated for 4 days by fluorescence based lysed cell assay. To be noted: Fibroblast, filed as modulator, time 4.0 day.
The test system of series [23] is Lysosomal acid glucosylceramidase (Homo sapiens), P04062 [UNDEFINED MUTATION]. Briefly: Modulation of GCase N370S/RecNcil mutant in Gaucher patient-derived human fibroblasts assessed as GCase rescue at 10 to 100 uM incubated for 4 days by fluorescence based lysed cell assay. To be noted: Fibroblast, dose 10-100 µM, time 4.0 day.
The nature of series [24]: Antioxidant activity assessed as DPPH radical scavenging activity at 400 umol measured after 10 mins relative to control. To be noted: dose 400.0 µmol. The series is classed as functional. For orientation: Loss of DPPH colour is used to gauge radical scavenging.
In series [25] the test system is Lysosomal acid glucosylceramidase (Homo sapiens), P04062 [UNDEFINED MUTATION]. Briefly: Modulation of GCase N370S/RecNcil mutant in Gaucher patient-derived human fibroblasts using 4-methylumbelliferyl beta-D-glucopyranoside as substrate assessed as GCase rescue at 10 to 100 uM preincubated for 4 days followed by compound washout and substrate addition measured after 2 hrs by fluorescence based intact cell enzyme assay. Conditions: Fibroblast, dose 10-100 µM, time 4.0 day.

Series [26] in a line: Antioxidant activity assessed as DPPH radical scavenging activity at 200 umol measured after 10 mins relative to control. Conditions: dose 200.0 µmol. It is filed as functional.
Series [27] in a line: Antioxidant activity assessed as inhibition of DPPH radical scavenging activity measured after 10 mins relative to control. The series is classed as functional.

As to `OC[C@H]1CNC[C@@H](O)[C@@H]1O`, the fold change (FC) in [1] is 2.

In the case of `O=[N+]([O-])c1ccc(C2OC[C@H](CCN3C[C@@H](O)C(O)[C@H](O)C3)O2)cc1` (some centres not stated), the remaining at 1 h in [2] is above 95%. The remaining at 96 h in [3] is above 95%. Further, the Stability entry in [4] was “Stable”. Also, the inhibition (in general, how much of the control response was suppressed) in series [5] amounted to 77%. The IC50 – broadly, the concentration at which inhibition is half-maximal – in series [6] amounted to 300 µM. In addition, the fold change (FC) in series [7] was determined as 1.6. For the same compound, the result in series [8] was inactive.

For `CCCCOC1OCC(CNC(=S)N2C[C@H](O)[C@@H](O)[C@H](O)[C@H]2CO)O1` (some centres not stated), the outcome in [8] was inactive. The fold change (FC) in series [9] stood at 1.5.

On to `OC1[C@H](O)CN(CC[C@H]2COC(c3ccc(Br)cc3)O2)C[C@H]1O` (some centres not stated), for which the remaining at 1 h in series [2] was above 95%. In [3], the remaining at 96 h was above 95%. The Stability entry in [4] is listed as “Stable”. The inhibition in series [5] was 75%; in series [12], “Active; The Secondary Plot Was Concave Upward, Rather Than Linear, Thus Confirming That Inhibitory Effect Arises From The Binding Of More Than One Molecule Of Compound On Enzyme Surface; Not Attributable To A Cooperativity Phenomenon”; in series [13], 80%; in series [14], 77%; in series [15], 80%; in series [16], 76%. For the same compound, the half-maximal inhibitory concentration (IC50) in [6] is 100 µM. Also, the inhibition entry in [10] and in [11] was “Active” in each case. Further, the fold change (FC) in [7] was 1.83; in series [17], 1.46; in series [18], 1.56; in series [19] it was 1.26.

For `CCCCCCCCCCCCOC1OC[C@H](CCN2C[C@@H](O)C(O)[C@H](O)C2)O1` (some centres not stated), the fold change (FC) in series [20] was 2.15; in series [21], 1.92; in series [1], 2.06; in [22], 1.24.

For `COc1cc(C2OC[C@H](CCN3C[C@@H](O)C(O)[C@H](O)C3)O2)ccc1O` (some centres not stated), in [2], the remaining at 1 h is 82%. For the same compound, the remaining at 96 h in series [3] amounted to 61%. In [5], this compound gave an inhibition of 70%. In addition, the outcome in series [23] and in series [8] was inactive. For the same compound, the Activity in series [24] was 14%.

Turning to `OC1[C@H](O)CN(CC[C@H]2COC(OCc3ccc(-c4ccccc4)cc3)O2)C[C@H]1O` (some centres not stated), the fold change (FC) is 1.61 in [7], 2.11 in series [20] and 2.03 in [22].

Consider `COc1cc(/C=C/C2OC[C@H](CCN3C[C@@H](O)C(O)[C@H](O)C3)O2)ccc1O` (some centres not stated), for which, in series [2], the remaining at 1 h came to 87%. In addition, the remaining at 96 h in [3] was determined as 72%. Further, the inhibition amounted to 84% in [5]; 75% in series [13]; 69% in series [14]; 55% in series [15]; 47% in series [16]. For the same compound, the fold change (FC) was 1.5 in series [7] and 1.3 in series [20]. Besides, the outcome in series [25] was inactive. Moreover, the Activity in series [26] is 67%.

For the compound `Cc1cc(C(C)(C)C)c(O)c(C(C)(C)C)c1`, the inhibition in series [27] is above 95%.

As for `Nc1c(Br)cc(Br)cc1CN[C@H]1CC[C@H](O)CC1`, the fold change (FC) in [20] worked out at 1.3.
